Assay results: patent publication US20240270821A1, “GIP/GLP1/GCG TRI-RECEPTOR AGONISTS AND USES THEREOF” (priority 2023, published 2024)
Like-named read-outs stand apart in the source and are kept apart here. Starred links: 1 amine or outer side, 2 acyl side, 3 side chain; linkers in the order of their positions; H or OH if unused. Non-standard residues stand in square brackets, D forms with d. Groups on a side chain read outwards from the residue. *: point of attachment. C20 diacid = O=C(O)CCCCCCCCCCCCCCCCCCC(=O)*; C18 diacid = O=C(O)CCCCCCCCCCCCCCCCC(=O)*; αMePhe(2-F) = C[C@](N)(Cc1ccccc1F)C(=O)O; γGlu = O=C(O)[C@H](CCC(=O)[*:2])N[*:1]; αMeY = C[C@](N)(Cc1ccc(O)cc1)C(=O)O; 4Pal = N[C@@H](Cc1ccncc1)C(=O)O; Aad = N[C@@H](CCCC(=O)O)C(=O)O; αMeL = CC(C)C[C@](C)(N)C(=O)O; αMeS = C[C@](N)(CO)C(=O)O; Orn = NCCC[C@H](N)C(=O)O; AEEA = NCCOCCOCC(=O)O; Aib = CC(C)(N)C(=O)O

How the values were obtained:
Format in all cases: cell-based
hGLP-1R [1] = molecular target: T1, hGLP-1R (Homo sapiens, UniProt P43220); assay: Functional cAMP activation in the presence of 0.1% casein (no HSA); details: read-out: Relative cAMP EC50, hGLP-1R;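 further: intracellular cAMP rise after 30 min at 37 °C read by HTRF, normalized between buffer only (0%) and maximal control ligand (100%), four-parameter variable-slope fit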
hGLP-1R [2] = molecular target: T1, hGLP-1R; assay: Functional cAMP activity in the presence of 1% HSA; details: read-out: cAMP Rel EC50, hGLP-1R
human GcgR = human GcgR (Homo sapiens, UniProt P47871); assay: Functional cAMP activity in the presence of 1% HSA; details: read-out: cAMP Rel EC50, hGcgR
hGcgR = hGcgR (Homo sapiens, UniProt P47871); assay: Functional cAMP activation in the presence of 0.1% casein (no HSA); details: read-out: Relative cAMP EC50, hGcgR;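 further: intracellular cAMP rise after 30 min at 37 °C, read by HTRF against a cAMP standard curve, scaled from buffer only (0%) to maximal control ligand response (100%)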
hGIPR [3] = molecular target: T2, hGIPR (Homo sapiens, UniProt P48546); assay: Functional cAMP activity in the presence of 1% HSA; details: read-out: cAMP Rel EC50, hGIPR
T2 sequence (P48546 22-466): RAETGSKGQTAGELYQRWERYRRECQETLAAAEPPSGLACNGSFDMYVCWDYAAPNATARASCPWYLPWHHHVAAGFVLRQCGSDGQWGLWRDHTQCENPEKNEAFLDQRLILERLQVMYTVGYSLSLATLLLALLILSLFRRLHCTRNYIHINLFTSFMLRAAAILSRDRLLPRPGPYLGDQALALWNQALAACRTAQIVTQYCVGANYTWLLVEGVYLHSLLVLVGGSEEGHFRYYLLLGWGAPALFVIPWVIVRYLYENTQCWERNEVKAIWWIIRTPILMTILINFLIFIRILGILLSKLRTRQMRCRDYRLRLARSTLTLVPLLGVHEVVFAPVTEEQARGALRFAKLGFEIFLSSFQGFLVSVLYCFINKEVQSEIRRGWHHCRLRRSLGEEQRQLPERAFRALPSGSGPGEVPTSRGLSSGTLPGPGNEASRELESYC

hGIPR [4] = molecular target: T2, hGIPR; assay: Functional cAMP activation in the presence of 0.1% casein (no HSA); details: read-out: Relative cAMP EC50, hGIPR;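 further: intracellular cAMP rise after 30 min at 37 °C read by HTRF against a standard curve, scaled between buffer alone (0%) and top control ligand concentration (100%), four-parameter fit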
[5] = in the presence of 0.1% casein (no HSA), geometric mean
[6] = HEK-293 clonal cells expressing hGLP-1R, in the presence of 1% HSA, geometric mean of relative EC50
[7] = HEK-293 clonal cells expressing hGcgR, in the presence of 1% HSA, geometric mean of relative EC50
[8] = HEK-293 clonal cells expressing hGIPR, in the presence of 1% HSA, geometric mean of relative EC50
[9] = in the presence of 0.1% casein (no HSA), geometric mean of relative EC50
[10] = HEK-293 clonal cell line, 1% HSA, geometric mean of relative EC50

T1 sequence (P43220 24-463): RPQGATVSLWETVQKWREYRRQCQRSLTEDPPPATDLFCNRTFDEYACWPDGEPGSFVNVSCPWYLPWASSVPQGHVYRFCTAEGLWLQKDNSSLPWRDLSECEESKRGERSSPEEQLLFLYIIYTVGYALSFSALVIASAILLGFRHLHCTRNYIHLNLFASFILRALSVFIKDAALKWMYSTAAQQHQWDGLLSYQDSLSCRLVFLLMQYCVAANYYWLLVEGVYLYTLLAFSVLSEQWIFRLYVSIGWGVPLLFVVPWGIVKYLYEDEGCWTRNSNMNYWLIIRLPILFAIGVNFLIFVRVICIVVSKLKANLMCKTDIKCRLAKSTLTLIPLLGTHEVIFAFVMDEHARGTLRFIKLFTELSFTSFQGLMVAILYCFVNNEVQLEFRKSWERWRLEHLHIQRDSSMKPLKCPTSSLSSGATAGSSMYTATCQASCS
Chain of hGcgR (P47871 26-477): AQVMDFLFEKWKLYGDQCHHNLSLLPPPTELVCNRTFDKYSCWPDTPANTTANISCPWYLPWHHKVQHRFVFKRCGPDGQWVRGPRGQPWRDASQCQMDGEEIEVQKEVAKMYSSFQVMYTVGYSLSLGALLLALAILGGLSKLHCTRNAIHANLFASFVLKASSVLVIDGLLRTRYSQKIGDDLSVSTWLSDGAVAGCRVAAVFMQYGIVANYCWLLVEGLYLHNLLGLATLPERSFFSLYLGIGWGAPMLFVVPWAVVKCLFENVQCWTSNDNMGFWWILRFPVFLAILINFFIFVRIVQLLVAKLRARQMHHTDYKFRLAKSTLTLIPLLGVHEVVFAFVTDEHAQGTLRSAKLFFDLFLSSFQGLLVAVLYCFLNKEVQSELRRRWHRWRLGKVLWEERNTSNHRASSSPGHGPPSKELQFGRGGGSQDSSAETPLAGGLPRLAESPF
Chain of human GcgR (P47871 26-477): as above

Row | Substance | EC50 (hGLP-1R [1]) [nM] | EC50 (hGLP-1R [2]) [nM] | EC50 (human GcgR) [nM] | EC50 (hGcgR) [nM] | EC50 (hGIPR [3]) [nM] | EC50 (hGIPR [4]) [nM] | EC50 (hGLP-1R [1]; [5]) [nM] | EC50 (hGcgR; [5]) [nM] | EC50 (hGIPR [4]; [5]) [nM] | further results
1 | H-Y[Aib]QGT[αMePhe(2-F)]TSDYSILLDKK([AEEA-γGlu-C18 diacid])AQ[Aib]AFIE[4Pal]LEEGGPSSGAPPPSEG-NH2 [Example 411] | 0.709 | 82.1 | 1170 | 3.94 | 23.8 | 0.058 |  |  |  | 
2 | H-Y[Aib]QGT[αMePhe(2-F)]TSDYSILLDKK([γGlu-γGlu-C18 diacid])AQ[Aib]AFIEYLEEGGPSSGAPPPEEG-NH2 [Example 471] | 0.317 | 37.9 | 181 | 2.19 | 5.45 | 0.0296 |  |  |  | 
3 | H-Y[Aib]QGT[αMePhe(2-F)]TSDYSILLDKQAAK([AEEA-AEEA-γGlu-C20 diacid])EFIEYLIEGGPSSGEPPPSEG-NH2 [Example 348] |  | 136 | 1250 |  | 36.4 |  | 0.346 | 3.9 | 0.127 | 
4 | H-Y[Aib]QGT[αMePhe(2-F)]TSDYSILLDKQAQK([AEEA-AEEA-γGlu-C20 diacid])AFIEYLLEGGPSSGEPPPSEG-NH2 [Example 345] |  | 256 | 3300 |  | 15.3 |  | 0.658 | 11.3 | 0.0377 | 
5 | H-Y[Aib]QGT[αMePhe(2-F)]TSDYSI[αMeL]LDKK([AEEA-AEEA-γGlu-C20 diacid])AA[Aib]AFIEYLIETGPSSGAPPPSEG-NH2 [Example 383] |  |  |  |  |  |  | 0.258 | 1.27 | 0.0406 | EC50 (hGLP-1R [2]; [6]): 79.1 nM; EC50 (human GcgR; [7]): 530 nM; EC50 (hGIPR [3]; [8]): 32.3 nM
6 | H-Y[Aib]QGT[αMePhe(2-F)]TSDYSI[αMeL]LDKK([AEEA-γGlu-C18 diacid])AQ[Aib]AFIEYLLETGPSSGAPPPSEG-NH2 [Example 417] |  |  |  |  |  |  |  |  |  | EC50 (hGLP-1R [1]; [9]): 0.328 nM; EC50 (hGLP-1R [2]; [10]): 67 nM; EC50 (human GcgR; [10]): 386 nM; EC50 (hGcgR; [9]): 2.83 nM; EC50 (hGIPR [3]; [10]): 4.46 nM; EC50 (hGIPR [4]; [9]): 0.0144 nM
7 | H-Y[Aib]QGT[αMePhe(2-F)]TSDYSI[αMeL]LD[Orn]K([AEEA-γGlu-C18 diacid])AQ[Aib]AFI[dE]YLLEGGPSSGAPPPSEG-NH2 [Example 404] | 0.217 | 32.2 | 735 | 4.1 | 2.03 | 0.0102 |  |  |  | 
8 | H-Y[Aib]QGT[αMePhe(2-F)]TSDYSKLLDEIAQK([AEEA-γGlu-C20 diacid])AFIEYLLEGGPSSGEPPPSEG-NH2 [Example 303] |  | 257 | 9950 |  | 44.7 |  | 1.13 | 6.1 | 0.116 | 
9 | H-Y[Aib]QGT[αMePhe(2-F)]TSDYSKLLDKIAQK([AEEA-γGlu-C18 diacid])AFIEYLIEGGPSSGEPPPSEG-NH2 [Example 330] |  | 91.8 | 398 |  | 7.33 |  | 0.63 | 3.91 | 0.0783 | 
10 | H-Y[Aib]QGT[αMePhe(2-F)]TSDYSKLLDKIAQK([AEEA-γGlu-C20 diacid])AFIEYLIEGGPSSGAPPPEGE-NH2 [Example 357] |  | 248 | 1810 |  | 42.9 |  | 0.625 | 6.21 | 0.077 | 
11 | H-Y[Aib]QGT[αMePhe(2-F)]TSDYSKLLDKIAQK([AEEA-γGlu-C20 diacid])AFIEYLIEGGPSSGAPPPSGE-NH2 [Example 356] |  | 206 | 2680 |  | 19.2 |  | 0.599 | 4.76 | 0.0613 | 
12 | H-Y[Aib]QGT[αMePhe(2-F)]TSDYSKLLDKIAQK([AEEA-γGlu-C20 diacid])[Orn]FIEWLIEGGPSSGEPPPSEG-NH2 [Example 310] |  | 177 | 4000 |  | 15 |  | 0.586 | 3.52 | 0.0939 | 
13 | H-Y[Aib]QGT[αMePhe(2-F)]TSDYSK[αMeL]LDKK([AEEA-γGlu-C18 diacid])AQ[Aib]QFIEYLEEGGPSSGEPPPSEG-NH2 [Example 292] |  |  |  |  |  |  | 1.03 | 1.84 | 1.02 | EC50 (hGLP-1R [2]; [6]): 129 nM; EC50 (human GcgR; [7]): 583 nM; EC50 (hGIPR [3]; [8]): 92.7 nM
14 | H-Y[Aib]QGT[αMePhe(2-F)]TSDY[αMeS]I[αMeL]LD[Orn]K([AEEA-γGlu-C18 diacid])AQ[Aib][Orn]FI[dE][αMeY]LEEGGPSSGEPPPEEG-NH2 [Example 403] | 0.396 | 70 | 527 | 1.59 | 36.9 | 0.0827 |  |  |  | 
15 | H-Y[Aib]QGT[αMePhe(2-F)]TSD[4Pal]SILLDKK([AEEA-γGlu-C18 diacid])AQ[Aib]AFIEYLEEGGPSSGAPPPSGTGE-NH2 [Example 662] | 0.946 | 84.5 | 561 | 4.81 | 4.69 | 0.0704 |  |  |  | 
16 | H-Y[Aib]QGT[αMePhe(2-F)]TSD[4Pal]SILLDKK([AEEA-γGlu-C18 diacid])AQ[Aib]AFIEYL[Aad]EGGPSSGAPPPSGTGE-NH2 [Example 663] | 1.29 | 79 | 226 | 1.95 | 10.2 | 0.0893 |  |  |  | 
17 | H-Y[Aib]QGT[αMePhe(2-F)]TSD[4Pal]SILLDKK([AEEA-γGlu-C18 diacid])AQ[Aib]AFIE[αMeY]LEEGGPSSGAPPPSGTGE-NH2 [Example 669] | 0.27 | 27.3 | 173 | 1.76 | 1.41 | 0.0145 |  |  |  | 
18 | H-Y[Aib]QGT[αMePhe(2-F)]TSD[4Pal]SILLDKK([γGlu-γGlu-C18 diacid])AQ[Aib]AFIEWLEEGGPSSGAPPPSGTE-NH2 [Example 549] | 0.395 | 76.2 | 655 | 3.41 | 3.67 | 0.0255 |  |  |  | 
19 | H-Y[Aib]QGT[αMePhe(2-F)]TSD[4Pal]SILLDKK([γGlu-γGlu-C18 diacid])AQ[Aib]AFIEWLQEGGPSSGEPPPSGTEE-NH2 [Example 579] | 0.252 | 67.3 | 679 | 2.36 | 3.79 | 0.0171 |  |  |  | 
20 | H-Y[Aib]QGT[αMePhe(2-F)]TSD[4Pal]SILLDKK([γGlu-γGlu-C18 diacid])AQ[Aib]AFIEYLEEGGPSSGAPPPEGTE-NH2 [Example 659] | 1.31 | 81.5 | 735 | 5.89 | 5.75 | 0.0673 |  |  |  | 
21 | H-Y[Aib]QGT[αMePhe(2-F)]TSD[4Pal]SILLDKK([γGlu-γGlu-C18 diacid])AQ[Aib]AFIEYLEEGGPSSGAPPPSGAGE-NH2 [Example 620] | 0.981 | 90.7 | 665 | 8.26 | 5.96 | 0.0706 |  |  |  | 
22 | H-Y[Aib]QGT[αMePhe(2-F)]TSD[4Pal]SILLDKK([γGlu-γGlu-C18 diacid])AQ[Aib]AFIEYLEEGGPSSGAPPPSGEEE-NH2 [Example 611] | 1.63 | 146 | 627 | 6.8 | 7.35 | 0.126 |  |  |  | 
23 | H-Y[Aib]QGT[αMePhe(2-F)]TSD[4Pal]SILLDKK([γGlu-γGlu-C18 diacid])AQ[Aib]AFIEYLEEGGPSSGAPPPSGEGE-NH2 [Example 621] | 1.28 | 111 | 901 | 6.81 | 7.31 | 0.0661 |  |  |  | 
24 | H-Y[Aib]QGT[αMePhe(2-F)]TSD[4Pal]SILLDKK([γGlu-γGlu-C18 diacid])AQ[Aib]AFIEYLEEGGPSSGAPPPSGGEE-NH2 [Example 612] | 1.21 | 126 | 640 | 7.13 | 7.58 | 0.087 |  |  |  | 
